According to patent US9399631B2, “Polyphenol proteasome inhibitors, synthesis, and methods of use” (UNIVERSITY OF SOUTH FLORIDA, priority 2003, dated 2016):

Assays:
[1] = tested on: prokaryotic 20S proteasome; assay: Dialysis assay for irreversible inhibition, prokaryotic 20S proteasome; assay type: biochemical, Methanosarcina thermophile
Description: Materials. Highly purified tea polyphenols (−)-EGCG (>95%), (−)-GCG (>98%), (−)-ECG (>98%), (−)-CG (>98%), fetal calf serum, propidium iodide, 3-[4,5-dimethylthiazol-2-yl]-2,5-diphenyltetrazolium bromide (MTT), RNase A, and DMSO were purchased from Sigma (St. Louis, Mo.). (+)-EGCG, benzyl-protected-(+)-EGCG, (+)-GCG, (−)-EGCG-amide, and (+)-EGCG-amide were prepared by enantioselective synthesis (see below). Purified 20S eukaryotic proteasome from rabbit was purchased from BOSTON BIOCHEM (Cambridge, Mass.). Purified 20S prokaryotic proteasome (Methanosarcina thermophile, Recombinant, E. coli) was purchased from CALBIOCHEM (La Jolla, Calif.). Fluorogenic peptide substrates Suc-Leu-Leu-Val-Tyr-AMC (for the proteasomal chymotrypsin-like activity) was obtained from Calbiochem (La Jolla, Calif.). RPMI 1640 medium, Dulbecco's modified Eagle's medium, MEM non-essential amino acids solution, MEM-sodium pyruvate solution, penicillin, and streptomycin were from INVITROGEN (Carlsbad, Calif.). Monoclonal antibody to p27^Kip was purchased from PHARMINGEN (San Diego, Calif.); polyclonal antibodies to IκB-α, Bax and actin, and monoclonal antibody to ubiquitin were from SANTA CRUZ Biotechnology Inc. (Santa Cruz, Calif.).
Assays for irreversible inhibition. To measure the effect of dialysis on (−)-EGCG-mediated proteasome inhibition, 20S prokaryotic proteasome (2 μg) was incubated with 10 μM (−)-EGCG or the control solvent (H2O) in 50 mM Tris-HCl, pH 7.5 for 1 hour. This was then incubated at 4° C. either without or with dialysis overnight using a 10,000 MWCO Pierce Slide-A-Lyzer Dialysis Cassette (Rockford, Ill.) in a rotating bath of 50 mM Tris-HCl, pH 7.5. The proteasomal chymotrypsin-like activity was then assayed as previously described. As a control, an EGCG solution (without purified 20S proteasome) was dialyzed overnight, followed by measurement of the effects on inhibition of the proteasome activity.
To investigate the nature of (−)-EGCG-mediated proteasome inhibition, a dialysis experiment was performed. […]

DU145 cells = assay: Cell-free caspase-3 activity assay, DU145 cells; assay type: cell-based, human; settings: 10 μM, 72 hours, normalized to 0 hours
Description: To examine whether (+)-EGCG could induce apoptosis only in LNCaP, but not DU-145, cells, both cell lines were treated with 10 μM (+)-EGCG for 0, 24, 48 or 72 hours, followed by performance of cell-free caspase-3 activity assay. Cells were harvested at each sequential time-point and activity was determined by incubating whole cell extracts with caspase-3 substrate and measuring free AMCs (FIG. 20C). All the time-points were normalized to 0 hours. (+)-EGCG activated caspase-3 in LNCaP cells in a time-dependent manner: by 2.5-, 3.5- and 6-fold at 24, 48 and 72 hours, respectively (FIG. 20C). In contrast, little caspase-3 activity was detected in (+)-EGCG-treated in DU145 cells: only ˜2-fold induction at 72 hours (FIG. 20C). In the same experiment, (−)-EGCG at 10 μM was used as a control. […] Therefore, the abilities of (+)-EGCG to activate apoptotic program in these prostate cancer cell lines are correlated well to their abilities to accumulate Bax protein levels to a critical high threshold (compare FIGS. 20C and 20D vs. 20B). Values are means of triplicate independent experiments and error bars denote standard deviations.

MCF-7 cells = assay: Proteasome inhibition / p27 accumulation in MCF-7 cells; assay type: cell-based, human

O=C(O[C@@H]1Cc2c(O)cc(O)cc2O[C@@H]1c1cc(O)c(O)c(O)c1)c1cc(O)c(O)c(O)c1 [(−)-EGCG, (−)-epigallocatechin-3-gallate, reference compound]
inhibition of chymotrypsin-like activity ([1]; 10 μM, 1 h pre-incubation, overnight dialysis): 81%
inhibition of chymotrypsin-like activity ([1]; 10 μM, absence of dialysis): 85%
inhibition of chymotrypsin-like activity ([1]; compound dialyzed overnight before addition to proteasome (EGCG pre)): no inhibition was observed

O=C(OC1Cc2c(O)cc(O)cc2OC1c1cc(O)c(O)c(O)c1)c1cc(O)c(O)c(O)c1 (single isomer, unassigned; (+)) [(+)-EGCG]
caspase-3 induction (DU145 cells): ~2 fold

O=C(N[C@@H]1Cc2c(O)cc(O)cc2O[C@@H]1c1cc(O)c(O)c(O)c1)c1cc(O)c(O)c(O)c1 [(−)-EGCG-amide, (−)-[2R,3R]-N-[5,7-Dihydroxy-2-(3,4,5-trihydroxyphenyl)-chroman-3-yl]-3,4,5-trihydroxybenzamide]
inhibition of proteasome activity / accumulation of p27 (MCF-7 cells): able to inhibit the proteasome activity
